Measurements taken from patent publication US20250041284A1, “TREATMENT OF NEUROLOGICAL DISORDERS” (Praxis Precision Medicines, Inc., priority 2022, published 2025).
Entries after “also recorded” stand apart in the source; their conditions may differ. Like-named read-outs stand apart in the source and are kept apart here.

How the values were obtained:
human NaV1.6 [1] = biological target: T1, human NaV1.6 (Homo sapiens, UniProt Q9UQD0); assay: Persistent (late) INa inhibition, ATX-II activated, automated patch clamp in HEK cells; type: cell-based; details: for Persistent INa Hill slope: hNaV1.6 in HEK cells, ATX-II
T1 construct: HEK-293 cell lines stably expressing human NaV1.6 (NP_055006) were used; expressed in transfected cells

human NaV1.6 [2] = biological target: T1, human NaV1.6; assay: Peak INa tonic block (TB), automated patch clamp in HEK cells; type: cell-based; details: for Ratio to Pers. INa (Peak INa TB): peak INa TB IC50 / persistent INa IC50; for Peak INa TB Hill slope: tonic block
human NaV1.6 [3] = biological target: T1, human NaV1.6; assay: Peak INa use-dependent block (UDB-10 Hz), automated patch clamp in HEK cells; type: cell-based; details: for UDB preference to TB: TB IC50 / UDB IC50; for Ratio to Pers. INa (Peak INa UDB-10 Hz): UDB IC50 / persistent INa IC50; for activity dependent block of peak INa: in words, FIGS. 7A-7C; for Peak INa UDB-10 Hz Hill slope: use-dependent block 10 Hz
hNaV1.6 [4] = biological target: T2, hNaV1.6 (Homo sapiens, UniProt Q9UQD0); assay: Peak INa voltage-dependent block (VDB), automated patch clamp in HEK cells; type: cell-based; details: for Ratio to Pers. INa (Peak INa VDB): VDB IC50 / persistent INa IC50; for Peak INa VDB Hill slope: voltage-dependent block
T2 construct: expressed in transfected cells; host or cells: HEK cells

hNaV1.6 [5] = biological target: T2, hNaV1.6; assay: Apparent binding (KON) and unbinding (KOFF) rates inferred from INa inhibition kinetics; type: cell-based; details: read-out: apparent KON
[6] = system: MES-induced tonic hindlimb extension in male CD-1 mice; assay: MES acute seizure model, protection from tonic hindlimb extension (Example 9); type: in vivo, mouse; details: for ED50: Mus musculus, administered dose
Description: Male CD-1 mice (Vital River, Beijing, China) approximately 6 weeks old were obtained for the study. Body weights were between 20.5 grams and 38.5 grams at the time the experiments were carried out. […] Food and water were available ad libitum.
Treatment was conducted using Compound 1 and 35% 2-hydroxypropyl-β-cyclodextrin (35% HPBCD, used as a negative control). Compound 1 stock solution was prepared fresh each experiment day in 35% HPBCD and protected from light. The stock solution was diluted with vehicle for lower doses.
Mice were brought to the test room at least one hour before the start of the experiment. Mice were administered valproate (VPA; 400 mg/kg, intraperitoneally); or vehicle (35% HPBCD, 10 mL/kg, intraperitoneally); or Compound 1 (0.3 mg/kg, 1 mg/kg, 3 mg/kg or 10 mg/kg, orally) 30 minutes prior to the MES test.
The electroshock apparatus was set to deliver a 50 mA square-wave stimulus, with a 0.8 second duration, a pulse width of 10 milliseconds, and a frequency of 50 Hz. A pair of custom stainless-steel electrodes were soaked in 0.2% agar, and then the subject received bilateral transauricular stimulation through ear-clip electrodes. During the stimulation, mice were manually restrained then released immediately into an observation cage where they were monitored continuously for 60 seconds by an observer blinded to treatment group.
Mice were anesthetized with CO2 and terminal plasma and brain tissue samples were collected. […] The supernatant plasma was pipetted into Eppendorf tubes.
All statistical analyses were conducted using GraphPad Prism 9.3. Means were combined and standard error was calculated using the Satterthwaite Approximation to combine standard deviations. […] ED50 and EC50 values were calculated from these fit curves.

[7] = system: psychomotor seizures induced by 6-Hz electrical stimulation in wild-type CD-1 mice; assay: 6-Hz psychomotor seizure model; type: in vivo, mouse; details: 600 mg/kg intraperitoneally
From the text: This study evaluated the efficacy of Compound 1 in attenuating psychomotor seizures induced by 6-Hz electrical stimulation at two different stimulation intensities (32 and 44 mA) in wild-type CD-1 mice. Psychomotor seizures are defined as the expression of at least one of the following behaviors: stun/immobility, forelimb clonus, straub tail or lateral head movement within 30 seconds of the stimulus. Protection is defined as a complete absence of the above behaviors within 30 seconds of the stimulus. Doses of Compound 1 used were 1 mg/kg, 3 mg/kg and 6 mg/kg administered orally. Valproate (600 mg/kg, administered intraperitoneally) was used as a positive control.
Male CD-1 mice (Charles River Laboratories; St. Constant, Quebec, CAN) were used for the study. Body weights at the time the experiment was carried out were 30-40 grams. The mice were group-housed in polycarbonate cages according to standard operating procedures. Animals were maintained on a 12-hour light/12 hour dark cycle, with all experimental activities occurring during the light phase. Food and water were available ad libitum. Mice acclimated to the test facility for at least 72 hours prior to testing.
Treatment was conducted using Compound 1 and 35% 2-hydroxypropyl-β-cyclodextrin (35% HPBCD, used as a negative control). Compound 1 stock solution was prepared fresh each experiment day in 35% HPBCD. […] Valproate was prepared fresh each experiment day in a vehicle of saline and dosed at 10 mL/kg.
Mice were administered vehicle (35% HPBCD), a single dose of Compound 1 (1 mg/kg, 3 mg/kg or 6 mg/kg) or valproate (600 mg/kg). Vehicle and Compound 1 were administered via oral gavage 30 minutes prior to […]. Valproate was administered as an intraperitoneal injection 60 minutes prior to the electrical stimulus.
Immediately prior to conducting the 6-Hz seizure test, a brief neurological assessment was performed. Each animal was visually assessed and received a score from 0 to 3 according to the following scoring system::neurological score of 0 corresponds to a normal status; neurological score of 1 corresponds to a modest decrease in spontaneous activity; neurological score of 2 corresponds to a marked decrease in spontaneous activity; and neurological score of 3 corresponds to loss of righting reflex.
Corneal electrodes moistened with saline (ECT unit 57800; Ugo Basile) were used to deliver the electrical stimulus (6-Hz, 0.2 millisecond pulse width, 3 seconds duration). The current delivered was either 32 mA or 44 mA. Immediately after the electrical stimulus, each mouse was monitored continuously for 30 seconds by an observer blinded to the treatment group. […] Mice were scored for the presence or absence of each seizure behavior, with a maximum total score of 4. […] At the end of the 6-Hz seizure test, plasma and brain samples were collected.
Mice were anesthetized with isoflurane, whole blood was collected via cardiac puncture and brains were harvested. Whole blood was collected in potassium EDTA tubes and centrifuged at ˜3300 g for 5 minutes at 4° C. to isolate plasma. Plasma and brain samples were stored at −80° C. and analyzed to determine levels of Compound 1.
All statistical analyses were conducted using GraphPad Prism 9.3. Seizure scores were compared using Kruskal-Wallis test, followed by Dunn's post hoc and p<0.05 was considered statistically significant.

[8] = 400 mg/kg intraperitoneally, listed as valproate

T1 sequence (Q9UQD0 whole entry): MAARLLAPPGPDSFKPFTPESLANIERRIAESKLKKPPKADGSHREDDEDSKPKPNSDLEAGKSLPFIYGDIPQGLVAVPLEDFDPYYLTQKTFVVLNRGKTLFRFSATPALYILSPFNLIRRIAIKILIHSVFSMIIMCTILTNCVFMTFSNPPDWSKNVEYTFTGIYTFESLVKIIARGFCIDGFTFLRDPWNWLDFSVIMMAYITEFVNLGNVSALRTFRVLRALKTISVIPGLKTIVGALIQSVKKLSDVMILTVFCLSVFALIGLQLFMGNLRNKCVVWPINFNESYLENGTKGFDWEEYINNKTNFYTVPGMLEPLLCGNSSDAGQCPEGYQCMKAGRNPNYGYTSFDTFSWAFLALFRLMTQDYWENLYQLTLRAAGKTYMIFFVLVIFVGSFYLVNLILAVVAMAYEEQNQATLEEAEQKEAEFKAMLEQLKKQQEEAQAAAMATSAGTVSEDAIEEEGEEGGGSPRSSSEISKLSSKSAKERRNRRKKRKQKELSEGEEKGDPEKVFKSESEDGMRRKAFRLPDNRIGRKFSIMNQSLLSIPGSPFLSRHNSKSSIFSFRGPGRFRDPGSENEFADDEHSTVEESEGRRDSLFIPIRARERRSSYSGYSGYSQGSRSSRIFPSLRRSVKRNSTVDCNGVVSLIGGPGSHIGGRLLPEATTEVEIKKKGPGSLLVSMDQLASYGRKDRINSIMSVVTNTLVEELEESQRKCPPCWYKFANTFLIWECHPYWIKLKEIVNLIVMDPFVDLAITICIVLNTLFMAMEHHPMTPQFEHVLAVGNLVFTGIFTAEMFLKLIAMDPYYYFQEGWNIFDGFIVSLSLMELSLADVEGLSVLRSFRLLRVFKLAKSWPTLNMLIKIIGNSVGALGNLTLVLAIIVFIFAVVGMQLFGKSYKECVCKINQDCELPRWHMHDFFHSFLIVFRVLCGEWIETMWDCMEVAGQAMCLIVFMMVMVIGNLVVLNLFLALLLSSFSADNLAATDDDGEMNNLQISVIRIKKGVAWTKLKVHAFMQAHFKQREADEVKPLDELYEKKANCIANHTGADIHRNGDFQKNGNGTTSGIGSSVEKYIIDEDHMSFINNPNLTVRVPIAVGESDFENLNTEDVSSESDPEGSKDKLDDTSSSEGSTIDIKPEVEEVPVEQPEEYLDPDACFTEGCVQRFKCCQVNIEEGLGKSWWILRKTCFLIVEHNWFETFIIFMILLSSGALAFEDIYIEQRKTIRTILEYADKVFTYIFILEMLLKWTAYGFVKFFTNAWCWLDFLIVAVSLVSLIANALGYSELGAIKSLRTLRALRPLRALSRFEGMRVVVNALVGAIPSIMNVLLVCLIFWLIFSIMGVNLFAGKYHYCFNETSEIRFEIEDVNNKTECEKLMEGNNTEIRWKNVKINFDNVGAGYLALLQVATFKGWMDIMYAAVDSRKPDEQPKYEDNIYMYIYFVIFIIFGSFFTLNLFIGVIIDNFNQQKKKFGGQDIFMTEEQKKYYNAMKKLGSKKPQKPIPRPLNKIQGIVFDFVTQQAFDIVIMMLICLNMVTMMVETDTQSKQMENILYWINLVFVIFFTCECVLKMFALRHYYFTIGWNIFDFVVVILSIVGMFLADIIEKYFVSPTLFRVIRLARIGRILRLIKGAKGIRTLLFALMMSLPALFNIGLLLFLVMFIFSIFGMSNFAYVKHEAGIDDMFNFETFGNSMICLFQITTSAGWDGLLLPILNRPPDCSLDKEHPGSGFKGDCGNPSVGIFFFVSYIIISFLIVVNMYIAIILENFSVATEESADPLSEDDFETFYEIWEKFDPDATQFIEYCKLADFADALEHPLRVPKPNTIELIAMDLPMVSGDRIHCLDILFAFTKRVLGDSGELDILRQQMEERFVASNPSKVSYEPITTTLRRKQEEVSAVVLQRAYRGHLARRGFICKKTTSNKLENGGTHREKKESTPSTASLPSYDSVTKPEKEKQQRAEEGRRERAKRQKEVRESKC
T2 sequence (Q9UQD0 whole entry): as above

Structure (SMILES)	Persistent INa Hill slope (human NaV1.6 [1])	Ratio to Pers. INa (Peak INa TB) (human NaV1.6 [2])	Peak INa TB Hill slope (human NaV1.6 [2])	Ratio to Pers. INa (Peak INa UDB-10 Hz) (human NaV1.6 [3])	Peak INa UDB-10 Hz Hill slope (human NaV1.6 [3])	Ratio to Pers. INa (Peak INa VDB) (hNaV1.6 [4])	Peak INa VDB Hill slope (hNaV1.6 [4])	ED50 [6] [mg/kg]	other results
NC(=O)N1c2ccccc2C=Cc2ccccc21 [Carbamazepine, carbamazepine]	(1.1)	30	(1.0)	18	(0.9)	0.6	(0.9)	5.4	preference for persistent INa relative to peak INa (human NaV1.6 [1]; in words, FIGS. 1A-1D): no preference for persistent INa; UDB preference to TB (human NaV1.6 [3]): no UDB observed; activity dependent block of peak INa (human NaV1.6 [3]): minimal activity dependent block of peak INa; kon (hNaV1.6 [5]; development of inhibition of hNaV1.6 INa): 11000 M⁻¹ s⁻¹
NC(=O)O[C@@H](Cn1ncnn1)c1ccccc1Cl [Cenobamate, cenobamate]	(1.1)	24	(1.1)	11	(0.7)	0.9	(0.9)	4.1	UDB preference to TB (human NaV1.6 [3]): 2.3 ×; kon (hNaV1.6 [5]): 19000 M⁻¹ s⁻¹
COC[C@@H](NC(C)=O)C(=O)NCc1ccccc1 [Lacosamide, lacosamide]	(0.9)			0.8	(1.3)	0.3	(1.2)		
Nc1nnc(-c2cccc(Cl)c2Cl)c(N)n1 [Lamotrigine, lamotrigine]	(1.0)		(0.8)		(1.0)		(0.9)	3.8	activity dependent block of peak INa (human NaV1.6 [3]): minimal activity dependent block of peak INa
NC(=O)N1c2ccccc2CC(=O)c2ccccc21 [Oxcarbazepine, oxcarbazepine]	(1.0)	8	(1.7)			0.3	(1.1)		
O=C1NC(=O)C(c2ccccc2)(c2ccccc2)N1 [Phenytoin, phenytoin]	(0.8)			15	(0.6)	0.8	(1.0)		
CCCC(CCC)C(=O)O [Valproic acid]									sedation before MES test ([6]; 400 mg/kg intraperitoneally, listed as Valproate): mild to moderate sedation; protection against MES-induced hindlimb extension [6, 8]: all mice n=24 were seizure-free; also recorded: protected mice from MES-induced tonic hindlimb extension; sedation before MES test [6, 8]: nearly all valproate-treated mice showed mild to moderate sedation; neurological score (average) [7]: 1.2; spontaneous activity [7]: modest to marked decrease in spontaneous activity
Cc1cc(N2CCc3cc(F)ccc3C2)cc(C)c1NC(=O)CC(C)(C)C [XEN1101]								3.9	
